Consider 23 compounds from patent publication EP2424865B1 (Boehringer Ingelheim International GmbH, priority 2009, dated 2010).

Structures are written as SMILES. Where two headings read alike, the source gives them in different places. Some results are limits rather than exact numbers.

The target in one data set is CYP2C9 (Homo sapiens, UniProt P11712). Nature of the data set: Biological Test Example 9: CYP2C9 inhibition (Invitrogen kit, fluorogenic substrate OOMR). Type of data set: in vitro ADME.
Sequence of CYP2C9 (P11712 whole entry): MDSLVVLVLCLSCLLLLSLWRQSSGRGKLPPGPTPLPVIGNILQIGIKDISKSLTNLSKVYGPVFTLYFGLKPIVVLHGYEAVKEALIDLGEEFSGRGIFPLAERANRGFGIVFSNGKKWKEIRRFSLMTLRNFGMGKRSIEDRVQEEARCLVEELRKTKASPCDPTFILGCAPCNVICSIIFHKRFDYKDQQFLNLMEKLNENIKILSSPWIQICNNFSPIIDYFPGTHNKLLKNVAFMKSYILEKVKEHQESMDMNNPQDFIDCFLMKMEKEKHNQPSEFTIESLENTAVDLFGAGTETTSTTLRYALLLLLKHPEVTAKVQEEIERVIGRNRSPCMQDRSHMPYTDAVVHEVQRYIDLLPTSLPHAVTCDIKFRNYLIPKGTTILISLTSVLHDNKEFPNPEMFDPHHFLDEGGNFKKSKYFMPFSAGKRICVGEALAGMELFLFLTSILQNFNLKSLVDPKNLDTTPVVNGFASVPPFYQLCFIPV
The next data set deals with Plasma protein. The data set can be described thus: Biological Test Example 5: fraction unbound in human plasma (equilibrium dialysis). In kind it is in vitro ADME. For orientation: Equilibrium dialysis compares concentrations on both sides of a semipermeable membrane.
For data set [1], the target named is human recombinant cytochrome P450 2C9 (Homo sapiens, UniProt P11712). Nature of the data set: Biological Test Example 7: CYP2C9 inhibition ([O-methyl-14C]-Naproxen O-demethylation).
Sequence of human recombinant cytochrome P450 2C9 (P11712 whole entry): as above
The target of data set [2] is human recombinant cytochrome P450 2C19 (Homo sapiens, UniProt P33261). The data set can be described thus: Biological Test Example 8: CYP2C19 inhibition ([N-methyl-14C]-Diazepam N-demethylation).
Sequence of human recombinant cytochrome P450 2C19 (P33261 whole entry): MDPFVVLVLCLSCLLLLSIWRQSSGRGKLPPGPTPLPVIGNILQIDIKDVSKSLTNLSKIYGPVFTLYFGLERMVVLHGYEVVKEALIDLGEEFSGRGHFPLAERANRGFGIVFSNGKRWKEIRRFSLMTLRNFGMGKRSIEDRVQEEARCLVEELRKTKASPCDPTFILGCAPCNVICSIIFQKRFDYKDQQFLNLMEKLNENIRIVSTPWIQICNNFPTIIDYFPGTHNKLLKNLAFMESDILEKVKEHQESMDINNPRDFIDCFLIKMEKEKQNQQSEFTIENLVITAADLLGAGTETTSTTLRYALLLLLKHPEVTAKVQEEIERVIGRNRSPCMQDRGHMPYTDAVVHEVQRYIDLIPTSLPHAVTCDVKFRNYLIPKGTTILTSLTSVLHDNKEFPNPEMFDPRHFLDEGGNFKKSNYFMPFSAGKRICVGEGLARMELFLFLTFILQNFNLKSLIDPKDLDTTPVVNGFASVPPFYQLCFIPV
In data set [3] the target is human recombinant cytochrome P450 3A4 (Homo sapiens, UniProt P08684).
Sequence of human recombinant cytochrome P450 3A4 (P08684 whole entry): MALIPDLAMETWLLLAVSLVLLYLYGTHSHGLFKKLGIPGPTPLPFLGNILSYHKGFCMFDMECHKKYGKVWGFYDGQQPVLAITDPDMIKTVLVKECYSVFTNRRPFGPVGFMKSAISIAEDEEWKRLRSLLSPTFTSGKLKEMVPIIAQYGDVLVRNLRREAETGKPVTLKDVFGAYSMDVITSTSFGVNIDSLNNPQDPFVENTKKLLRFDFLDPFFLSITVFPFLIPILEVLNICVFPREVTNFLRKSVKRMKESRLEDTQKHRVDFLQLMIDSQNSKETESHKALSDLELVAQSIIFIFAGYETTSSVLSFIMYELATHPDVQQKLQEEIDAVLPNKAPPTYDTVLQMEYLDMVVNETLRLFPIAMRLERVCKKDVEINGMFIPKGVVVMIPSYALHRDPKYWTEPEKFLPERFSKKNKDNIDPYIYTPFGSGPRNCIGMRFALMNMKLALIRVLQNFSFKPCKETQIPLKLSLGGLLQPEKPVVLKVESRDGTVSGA
A further data set has as its target 11β-HSD1 (Homo sapiens, UniProt P28845). The settings on record: for Biological Test Example 1 Average % inhibition at 100 nM: 0.1 µM.
Where [4] appears, read: Invitrogen kit, fluorogenic substrate OOMR.
Where [5] appears, read: read-out: Biological Test Example 1 IC50 Range, microsomal preparation of human 11β-HSD1, SPA.

Sequence of 11β-HSD1 (P28845 whole entry): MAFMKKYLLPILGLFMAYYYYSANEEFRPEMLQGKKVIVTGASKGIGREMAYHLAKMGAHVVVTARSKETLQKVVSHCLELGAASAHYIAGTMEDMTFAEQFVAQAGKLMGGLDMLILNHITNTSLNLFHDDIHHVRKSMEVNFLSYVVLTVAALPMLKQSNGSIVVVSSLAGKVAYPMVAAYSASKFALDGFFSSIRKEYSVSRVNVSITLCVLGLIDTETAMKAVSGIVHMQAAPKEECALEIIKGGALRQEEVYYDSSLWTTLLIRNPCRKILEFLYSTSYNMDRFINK

Turning to `C[C@@H](c1ccc(-c2ccc(=O)n(C)c2)cc1)N1CC[C@](CC(C)(C)N(C)S(C)(=O)=O)(c2ccccc2)OC1=O` [Example 12, N-methyl-N-(2-methyl-1-((S)-3-((S)-1-(4-(1-methyl-6-oxo-1,6-dihydropyridin-3-yl)phenyl)ethyl)-2-oxo-6-phenyl-1,3-oxazinan-6-yl)propan-2-yl)methanesulfonamide], at CYP2C9 (setting [4]), the IC50 (commonly the midpoint of a concentration-inhibition curve) came to 12.1 µM. The “Biological Test Example 5 (%)” value in the data set on Plasma protein (Comparator Compounds) was 0.4%.
Consider `C[C@@H](c1ccc(-c2ccc(=O)[nH]c2)cc1)N1CC[C@](CCCO)(c2ccccc2)OC1=O` [Example 29, (R)-6-(3-hydroxypropyl)-3-((S)-1-(4-(6-oxo-1,6-dihydropyridin-3-yl)phenyl)ethyl)-6-phenyl-1,3-oxazinan-2-one], for which 7.5 µM corresponded to half-maximal inhibition on CYP2C9 (setting [4]) (IC50).
For the compound `C[C@@H](c1ccc(-c2ccc(=O)n(C)c2)cc1)N1CC[C@](CCCO)(c2ccc(F)cc2)OC1=O` [Example 33, (R)-6-(4-fluorophenyl)-6-(3-hydroxypropyl)-3-((S)-1-(4-(1-methyl-6-oxo-1,6-dihydropyridin-3-yl)phenyl)ethyl)-1,3-oxazinan-2-one], the 50% inhibitory concentration (IC50) was 43 µM in data set [1], 24.6 µM at CYP2C9 (setting [4]), 17 µM in data set [2] and over 50 µM in data set [3].
Take `C[C@@H](c1ccc(-c2ccn(C3CC3)c(=O)c2)cc1)N1CCC(CC(C)(C)O)(C2CC(F)(F)C2)OC1=O` (single isomer, unassigned; isomer 1) [95 Isomer 1]: the IC50 on 11β-HSD1 (read-out: Biological Test Example 1 IC50, Examples) was over 0.1 µM.
For the compound `C[C@@H](c1ccc(-c2ccn(C)c(=O)c2)cc1)N1CC[C@](CC(C)(C)C#N)(c2ccccc2)OC1=O` [Example 50, 2,2-dimethyl-3-((R)-3-((S)-1-(4-(1-methyl-2-oxo-1,2-dihydropyridin-4-yl)phenyl)ethyl)-2-oxo-6-phenyl-1,3-oxazinan-6-yl)propanenitrile], the half-inhibitory concentration (IC50) in data set [1] was 11 µM; on CYP2C9, 5.1 µM; in data set [2], 27 µM; in data set [3] it was 14 µM.
`C[C@@H](c1ccc(-c2ccc(=O)n(C)c2)cc1)N1CC[C@](CC(C)(C)NS(C)(=O)=O)(c2ccccc2)OC1=O` [Example 11, N-(2-methyl-1-((S)-3-((S)-1-(4-(1-methyl-6-oxo-1,6-dihydropyridin-3-yl)phenyl)ethyl)-2-oxo-6-phenyl-1,3-oxazinan-6-yl)propan-2-yl)methanesulfonamide]: in the data set with Plasma protein (Comparator Compounds), the “Biological Test Example 5 (%)” value was 0.7%.
Regarding `C[C@@H](c1ccc(-c2ccc(=O)[nH]c2)cc1)N1CC[C@](CC(C)(C)O)(c2ccccc2)OC1=O` [Example 1, (S)-6-(2-hydroxy-2-methytpropyl)-3-((S)-1-(4-(6-oxo-1,6-dihydropyridin-3-yl)phenyl)ethyl)-6-phenyl-1,3-oxazinan-2-one], the half-inhibitory concentration (IC50) on CYP2C9 (read-out: Biological Test Example 9 CYP2C9 IC50, comparator compounds, Invitrogen kit, fluorogenic substrate OOMR) turned out to be 27 µM.
`C[C@@H](c1ccc(-c2ccn(CC(F)(F)F)c(=O)c2)cc1)N1CC[C@](CC(C)(C)O)(c2ccccc2)OC1=O` [Example 66, (S)-6-(2-hydroxy-2-methylpropyl)-3-((S)-1-(4-(2-oxo-1-(2,2,2-trifluoroethyl)-1,2-dihydropyridin-4-yl)phenyl)ethyl)-6-phenyl-1,3-oxazinan-2-one]: the 50% inhibitory concentration (IC50) is 10 µM in data set [1], 11 µM in data set [2] and 18 µM in data set [3]. In addition, the “Biological Test Example 5 (%)” value with Plasma protein (Examples) is reported as 5.5%.
On to `C[C@@H](c1ccc(-c2ccn(C3CC3)c(=O)c2)cc1)N1CCC(CC(C)(C)O)(C2CCOCC2)OC1=O` (single isomer, unassigned) [Example 91 Isomer 2], for which the “Biological Test Example 1 Average % inhibition at 100 nM” value on 11β-HSD1 stood at 13.8%. Further, the 50% inhibitory concentration (IC50) at 11β-HSD1 (setting [5]) was over 0.1 µM.
For `C[C@@H](c1ccc(-c2ccn(C3CC3)c(=O)c2)cc1)N1CCC(CC(C)(C)O)(C2CC(F)(F)C2)OC1=O` (single isomer, unassigned) [Example 95 Isomer 2], in that order: 8.0% and over 0.1 µM.
For `CC[C@@H](c1ccc(-c2ccc(=O)n(C)c2)cc1)N1CC[C@](CC(C)(C)O)(c2ccccc2)OC1=O` [Example 54, (S)-6-(2-hydroxy-2-methylpropyl)-3-((S)-1-(4-(1-methyl-6-oxo-1,6-dihydropyridin-3-yl)phenyl)propyl)-6-phenyl-1,3-oxazinan-2-one], the half-maximal inhibitory concentration (IC50) in data set [2] was 18 µM. Further, in the data set with Plasma protein (Examples), the “Biological Test Example 5 (%)” value was 9.1%.
In turn, `C[C@@H](c1ccc(-c2ccc(=O)n(C)c2)cc1)N1CC[C@](CC(C)(C)O)(c2ccc(F)cc2)OC1=O` [Example 32, (S)-6-(4-fluorophenyl)-6-(2-hydroxy-2-methylpropyl)3-((S)-1-(4-(1-methyl-6-oxo-1,6-dihydropyridin-3-yl)phenyl)ethyl)-1,3-oxazinan-2-one] had a concentration for half-maximal inhibition (IC50) on CYP2C9 (setting [4]) of 28.7 µM. Besides, the “Biological Test Example 5 (%)” value with Plasma protein (Examples) is on record as 12.3%.
For the compound `CC[C@@H](c1ccc(-c2ccc(=O)n(C)c2)cc1)N1CC[C@](CCO)(c2ccccc2)OC1=O` [Example 40, (S)-6-(2-hydroxyethyl)-3-((S)-1-(4-(1-methyl-6-oxo-1,6-dihydropyridin-3-yl)phenyl)propyl)-6-phenyl-1,3-oxazinan-2-one], the 50% inhibitory concentration (IC50) is 27.9 µM against CYP2C9 and 13 µM in data set [2].
Take `C[C@@H](c1ccc(-c2ccn(C3CC3)c(=O)c2)cc1)N1CC[C@](CC(C)(C)O)(c2ccccc2)OC1=O` [Example 75, 3-{(S)-1-[4-(1-Cyclopropyl-2-oxo-1,2-dihydro-pyridin-4-yl)-phenyl]-ethyl}-(S)-6-(2-hydroxy-2-methyl-propyl)-6-phenyl-[1,3]oxazinan-2-one]: the IC50 in data set [1] is 19 µM; in data set [2], 24 µM; in data set [3] it was 23 µM. In the data set with Plasma protein (Examples), the “Biological Test Example 5 (%)” value was 15.6%.
In the case of `C[C@@H](c1ccc(-c2ccn(C)c(=O)c2)cc1)N1CC[C@](CC(C)(C)O)(c2ccccc2)OC1=O` [Example 48, (S)-6-(2-hydroxy-2-methylpropyl)-3-((S)-1-(4-(1-methyl-2-oxo-1,2-dihydropyridin-4-yl)phenyl)ethyl)-6-phenyl-1,3-oxazinan-2-one], in the data set on Plasma protein (Examples), the “Biological Test Example 5 (%)” value worked out at 8.7%.
For the compound `C[C@@H](c1ccc(-c2ccc(=O)n(C)c2)cc1)N1CC[C@](CCCO)(c2ccccc2)OC1=O` [Example 30, (R)-6-(3-hydroxypropyl)-3-((S)-1-(4-(1-methyl-6-oxo-1,6-dihydropyridin-3-yl)phenyl)ethyl)-6-phenyl-1,3-oxazinan-2-one], the 50% inhibitory concentration (IC50) in data set [2] was 27 µM. Besides, the “Biological Test Example 5 (%)” value with Plasma protein (Examples) turned out to be 13.9%.
Compound `CCn1cc(-c2ccc([C@H](C)N3CC[C@](CCCO)(c4ccccc4)OC3=O)cc2)ccc1=O` [Example 43, (R)-3-((S)-1-(4-(1-ethyl-6-oxo-1,6-dihydropyridin-3-yl)phenyl)ethyl)-6-(3-hydroxypropyl)-6-phenyl-1,3-oxazinan-2-one] returned an IC50 at CYP2C9 of 10.5 µM.
Consider `C[C@@H](c1ccc(-c2ccc(=O)n(C)c2)cc1)N1CC[C@](CC(C)(C)O)(c2ccccc2)OC1=O` [Example 37, (S)-6-(2-hydroxy-2-methylpropyl)-3-((S)-1-(4-(1-methyl-6-oxo-1,6-dihydropyridin-3-yl)phenyl)ethyl)-6-phenyl-1,3-oxazinan-2-one], for which the values for the concentration for half-maximal inhibition (IC50) (in data set [1]; against CYP2C9; in data set [3]) were 43 µM, 24.8 µM and 48 µM, respectively. In addition, the “Biological Test Example 5 (%)” value in the data set on Plasma protein (Examples) was found to be 14.6%.
With `CC[C@@H](c1ccc(-c2ccn(C)c(=O)c2)cc1)N1CC[C@](CC(C)(C)O)(c2ccccc2)OC1=O` [Example 55, (S)-6-(2-hydroxy-2-methylpropyl)-3-((S)-1-(4-(1-methyl-2-oxo-1,2-dihydropyridin-4-yl)phenyl)propyl)-6-phenyl-1,3-oxazinan-2-one], the IC50 in data set [1] is 29 µM; against CYP2C9, 24.3 µM; in data set [2], 13 µM; in data set [3] it was over 50 µM. Besides, the “Biological Test Example 5 (%)” value with Plasma protein (Examples) is given as 7.1%.
Regarding `C[C@@H](c1ccc(-c2ccc(=O)n(C)c2)cc1)N1CC[C@](CC(C)(C)C#N)(c2ccccc2)OC1=O` [Example 49, 2,2-dimethyl-3-((R)-3-((S)-1-(4-(1-methyl-6-oxo-1,6-dihydropyridin-3-yl)phenyl)ethyl)-2-oxo-6-phenyl-1,3-oxazinan-6-yl)propanenitrile], the IC50 is 29 µM in data set [1], 14.8 µM against CYP2C9 (setting [4]), 46 µM in data set [2] and 32 µM in data set [3].
`C[C@@H](c1ccc(-c2ccn(C)c(=O)c2)cc1)N1CC[C@](CCCO)(c2ccccc2)OC1=O` [Example 47, (R)-6-(3-hydroxypropyl)-3-((S)-1-(4-(1-methyl-2-oxo-1,2-dihydropyridin-4-yl)phenyl)ethyl)-6-phenyl-1,3-oxazinan-2-one]: 12.1 µM corresponded to half-maximal inhibition on CYP2C9 (setting [4]) (IC50).
Turning to `CCn1cc(-c2ccc([C@H](C)N3CC[C@](CC(C)(C)O)(c4ccccc4)OC3=O)cc2)ccc1=O` [Example 53, (S)-3-((S)-1-(4-(1-ethyl-6-oxo-1,6-dihydropyridin-3-yl)phenyl)ethyl)-6-(2-hydroxy-2-methylpropyl)-6-phenyl-1,3-oxazinan-2-one], the “Biological Test Example 5 (%)” value in the data set on Plasma protein (Examples) is 12.8%.
In the case of `C[C@@H](c1ccc(-c2ccc(=O)n(C3CC3)c2)cc1)N1CC[C@](CC(C)(C)O)(c2ccccc2)OC1=O` [Example 3, (S)-3-((S)-1-(4-(1-cyclopropyl-6-oxo-1,6-dihydropyridin-3-yl)phenyl)ethyl)-6-(2-hydroxy-2-methylpropyl)-6-phenyl-1,3-oxazinan-2-one], the half-inhibitory concentration (IC50) in data set [1] amounted to 38 µM; in data set [3], 44 µM. In addition, the “Biological Test Example 5 (%)” value in the data set with Plasma protein (Comparator Compounds) is 0.3%.
